According to patent US20240140941A1, “DERIVATIVE OF 2,5-DIKETOPIPERAZINE COMPOUND, AND PREPARATION METHOD THEREFOR, PHARMACEUTICAL COMPOSITION THEREOF AND USE THEREOF” (DALIAN WZ PROBIOTICS AD HEALTH CO., LTD, priority 2020, published 2024):
Where two headings read alike, the source gives them in different places.

Key:
NCI-H460 = assay: Inhibition test on cell proliferation (MTT), NCI-H460; type: cell-based, human
Method: (§1) Tumor cells (NCI-H460, BxPC-3, HT-29, HCC-LM3) in the logarithmic growth phase were digested, centrifuged, and the supernatants were removed. Cells were resuspended by adding fresh culture medium, and counted using a cell counting plate. 100 μL of culture medium (containing cells) was added to a 96-well plate according to the standard of 2000 to 6000 cells per well and incubated in an incubator (37° C., 5% CO2) for 24 hours. After the cells were completely adhered to the wall, the test sample and Plinabulin were diluted to different concentrations using fresh culture medium, and 4 wells were set for each concentration. After 72 hours of drug treatment, the culture medium was removed, and 20 μL of MTT at a concentration of 5 mg/mL was added to each well. After 3-4 hours in the incubator, the MTT was discarded, and 100 μL of DMSO was added to each well, and placed in a 96-well plate shaker to completely dissolve the purple formazan. Subsequently, the absorbance (OD value) was detected at a wavelength of 490 nm using a microplate reader. The experiment also required setting up zero-setting wells (blank culture medium, MTT, DMSO). Cell inhibition rate=1−(OD value of drug-dosed group−OD value of zero-setting group)/(OD value of blank group−OD value of zero-setting group)×100%.

BxPC-3 = assay: Inhibition test on cell proliferation (MTT), BxPC-3; type: cell-based, human; conditions: read-out: IC50 (nM) BxPC-3
Method: as §1

[1] = Homo sapiens, NCI-H460, 72 h, 72 hours of drug treatment, MTT, read-out: IC50 (nM) NCI-H460
[2] = Homo sapiens, BXPC-3, 72 h, 72 hours of drug treatment, MTT
[3] = Homo sapiens, NCI-H460, 72 h, read-out: IC50 (nM) NCI-H460, 72 hours of drug treatment, MTT

Compound	IC50 (NCI-H460; [1]) [nM]	IC50 (BxPC-3; [2]) [nM]	also measured
CC(C)c1c(/C=c2\[nH]c(=O)/c(=C/c3cccc(C(=O)c4ccc(F)cc4)c3)[nH]c2=O)ncn1CCCN1CCN(C(=O)C(C)(C)C)CC1 [PLN-2-33, (3Z,6Z)-3-(3-(p-fluorobenzoyl)phenyl)methylene-6-((5-isopropyl-1-(3-N-tert-butyrylpiperazinyl)propylimidazol-4-yl)methylene)piperazine-2,5-dione]	–	–	IC50 (NCI-H460; [3]): 9.91 ± 2 nM; IC50 (BxPC-3; Homo sapiens, BXPC-3, 72 h): 6.39 ± 2.51 nM
CC(C)c1c(/C=c2\[nH]c(=O)/c(=C/c3cccc(C(=O)c4ccc(F)cc4)c3)[nH]c2=O)ncn1CCCN1CCN(Cc2ccc(B3OC(C)(C)C(C)(C)O3)cc2)CC1 [PLN-2-27, (3Z,6Z)-3-(3-(p-fluorobenzoyl)phenyl)methylene-6-((5-isopropyl-1-(3-N-(4-(4,4,5,5-tetramethyl-1,3,2-dioxaborolan-2-yl))benzylpiperazinyl)propylimidazol-4-yl)methylene)piperazine-2,5-dione]	23.9 ± 4.76	17.9 ± 5.9	–
CC(C)c1c(/C=c2\[nH]c(=O)/c(=C/c3cccc(C(=O)c4ccc(F)cc4)c3)[nH]c2=O)ncn1CCCN1CCN(C(=O)OCc2ccc(B3OC(C)(C)C(C)(C)O3)cc2)CC1 [PLN-2-28, (3Z,6Z)-3-(3-(p-fluorobenzoyl)phenyl)methylene-6-((5-isopropyl-1-(3-N-p-(4,4,5,5-tetramethyl-1,3,2-dioxaborolan-2-yl)benzyloxycarbonylpiperazinyl)propylimidazol-4-yl)methylene)piperazine-2,5-dione]	–	–	IC50 (NCI-H460; [3]): 15.4 ± 1.68 nM; IC50 (BxPC-3; Homo sapiens, BXPC-3, 72 h): 9.22 ± 3.93 nM
CC1CN(CCCn2cnc(/C=c3\[nH]c(=O)/c(=C/c4cccc(C(=O)c5ccc(F)cc5)c4)[nH]c3=O)c2C(C)C)CC(C)O1 (stereo not drawn) [PLN-2-12, (3Z,6Z)-3-(3-(p-fluorobenzoyl)phenyl)methylene-6-((5-isopropyl-1-((2,6-dimethyl)-3-morpholinyl)propylimidazol-4-yl)methylene)piperazine-2,5-dione]	–	–	IC50 (NCI-H460; 72 hours of drug treatment, MTT, read-out: IC50 (nM) NCI-H460): 3.77 ± 0.62 nM; IC50 (BxPC-3; 72 hours of drug treatment, MTT): 2.48 ± 2.12 nM
CC1CN(CCCn2cnc(/C=c3\[nH]c(=O)/c(=C/c4cccc(C(=O)c5ccc(F)cc5)c4)[nH]c3=O)c2C2CC2)CC(C)O1 (stereo not drawn) [PLN-2-14, (3Z,6Z)-3-(3-(p-fluorobenzoyl)phenyl)methylene-6-((5-cyclopropyl-1-((2,6-dimethyl)-3-morpholinyl)propylimidazol-4-yl)methylene)piperazine-2,5-dione]	9.33 ± 0.54	9.33 ± 0.45	–
CC(C)c1c(/C=c2\[nH]c(=O)/c(=C/c3cccc(C(=O)c4ccc(F)cc4)c3)[nH]c2=O)ncn1CCCN1CCN(C(=O)C2CC2)CC1 [PLN-2-35, (3Z,6Z)-3-(3-(p-fluorobenzoyl)phenyl)methylene-6-((5-isopropyl-1-(3-N-cyclopropanecarbonylpiperazinyl)propylimidazol-4-yl)methylene)piperazine-2,5-dione]	5.28 ± 0.71	2.23 ± 2.2	–

The next lines start with results.

IC50 (NCI-H460; [1]) [nM]	IC50 (BxPC-3; [2]) [nM]	Compound	also measured
7.56 ± 0.33	4.4 ± 3.1	CC(C)=CC(=O)N1CCN(CCCn2cnc(/C=c3\[nH]c(=O)/c(=C/c4cccc(C(=O)c5ccc(F)cc5)c4)[nH]c3=O)c2C(C)C)CC1 [PLN-2-40, (3Z,6Z)-3-(3-(p-fluorobenzoyl)phenyl)methylene-6-((5-isopropyl-1-(3-N-(3,3-dimethyl)acryloylpiperazinyl)propylimidazol-4-yl)methylene)piperazine-2,5-dione]	–
6.93 ± 0.96	2.48 ± 0.57	CCC(=O)N1CCN(CCCn2cnc(/C=c3\[nH]c(=O)/c(=C/c4cccc(C(=O)c5ccc(F)cc5)c4)[nH]c3=O)c2C(C)C)CC1 [PLN-2-31, (3Z,6Z)-3-(3-(p-fluorobenzoyl)phenyl)methylene-6-((5-isopropyl-1-(3-N-propionylpiperazinyl)propylimidazol-4-yl)methylene)piperazine-2,5-dione]	–
8.68 ± 0.78	3.84 ± 0.12	CC(C)NC(=O)N1CCN(CCCn2cnc(/C=c3\[nH]c(=O)/c(=C/c4cccc(C(=O)c5ccc(F)cc5)c4)[nH]c3=O)c2C(C)C)CC1 [PLN-2-44, (3Z,6Z)-3-(3-(p-fluorobenzoyl)phenyl)methylene-6-((5-isopropyl-1-(3-N-isopropylaminocarbonylpiperazinyl)propylimidazol-4-yl)methylene)piperazine-2,5-dione]	–
